What all share (assay): NCI-60 cell line screen, 48 h
In experiment [1] the test system is ACHN renal.
The test system of experiment [2] is T-47D breast.
In experiment [3] the test system is M14 melanoma.
Experiment [4] relates to MOLT-4 leukemia.
For experiment [5], the system named is A549 NSCLC.
In experiment [6] the test system is HT29 colon.
Experiment [7] has as its system SK-MEL-2 melanoma.
The test system of experiment [8] is IGROV1 ovarian.
The subject of experiment [9] is HOP-92 NSCLC.
Experiment [10] concerns UACC-62 melanoma.

This is an account of results in PubChem BioAssay (NCI).

Structures are written as SMILES. Several values for one entry are separate records, joined by “and”; a condition that tells them apart may be missing. Identical values can stand only once.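 Growth conditions: 96-well plates. Treatment: test compound, 48 hours, 5 concentrations. Analysis: linear interpolation between bracketing concentrations; unreached endpoints set to highest concentration. GI50 is the concentration that inhibits growth by half. TGI: total growth inhibition.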

With `Cc1ccc(Cc2n[nH]c(=O)n2N2C(=O)c3ccccc3C2=O)cc1`, the TGI in experiment [1], in experiment [2], in [3], in experiment [4], in [5] and in [6] was > 100 µM throughout. Moreover, the TGI in experiment [7], in [8], in experiment [9] and in experiment [10] was > 100 µM each time.
`CC(C)(/C=N/O)/[N+]([O-])=C/c1ccccc1`: the TGI in experiment [1], in [2], in experiment [3], in experiment [4], in experiment [5] and in experiment [6] was > 100 µM throughout. Further, the TGI in experiment [7], in experiment [8], in [9] and in experiment [10] was > 100 µM in each case.
With `O=C1C(c2c(O)[nH]c3ccc(I)cc23)=Nc2ccccc21`, the TGI was 11.8 µM in experiment [1]; > 100 µM in [2]; > 100 µM in experiment [3]; > 100 µM in [4]; 20.3 µM in experiment [5]; > 100 µM in experiment [6]. Moreover, the TGI stood at 15.4 µM in experiment [7], 9.24 µM in experiment [8], 12.4 µM in experiment [9] and 21.3 µM in experiment [10].
`COC(=O)C1=C(C)NC2=C(C(=O)c3ccccc32)C1c1cn[nH]c1-c1ccccc1` (stereo unspecified): the TGI in experiment [1], in [2], in [3], in experiment [4], in experiment [5] and in experiment [6] was > 100 µM throughout. Further, the TGI in experiment [7], in [8], in [9] and in [10] was > 100 µM in each case.
Turning to `CC1(C)OC2[C@@H](CO[C@@]3([C@H]4OC(C)(C)O[C@@H]4CO)OC(C)(C)O[C@@H]23)O1` (stereo partly specified), the TGI in [1], in experiment [2], in experiment [3], in experiment [4], in experiment [5] and in [6] was > 100 µM each time. Besides, the TGI in [7], in experiment [8], in experiment [9] and in experiment [10] was > 100 µM throughout.
For the compound `CCOC(=O)C(NC(=O)c1ccccc1)(Nc1ccc(S(=O)(=O)Nc2ccc(OC)nn2)cc1)C(F)(F)F` (stereo unspecified), the TGI in experiment [1], in [2], in experiment [3], in experiment [4], in experiment [5] and in [6] was > 100 µM throughout. Further, the TGI in experiment [7], in experiment [8], in experiment [9] and in experiment [10] was > 100 µM in each case.
Take `CCN(CCN(CC)C(=O)NC)C(=O)NC`: the TGI in [1], in experiment [2], in experiment [3], in experiment [4], in experiment [5] and in experiment [6] was > 100 µM in each case. Besides, the TGI in experiment [7], in experiment [8], in experiment [9] and in experiment [10] was > 100 µM throughout.
Take `CC(C)(CO)NC(=O)c1cccs1`: the TGI in [1], in experiment [2], in experiment [3], in experiment [4], in experiment [5] and in [6] was > 100 µM in each case. Also, the TGI in [7], in experiment [8], in [9] and in experiment [10] was > 100 µM throughout.
Consider `NC(CS)C(=O)NCCNc1ccc(NCCNC(=O)C(N)CS)c2c1C(=O)c1c(O)ccc(O)c1C2=O` (stereo unspecified), for which the TGI in [1] was 0.123 µM and 0.104 µM; in experiment [2], 1.45 µM; in experiment [3] it was 1.28 µM and 1.1 µM; in [4], 0.62 µM; in experiment [5] it was 0.191 µM; in experiment [6], 1.08 µM and 0.689 µM. The TGI in [7] is 1.38 µM and 0.87 µM; in experiment [8], 1.47 µM; in experiment [9], 0.195 µM and 1.03 µM; in [10], 0.516 µM and 0.249 µM. In addition, the GI50 in experiment [6] was 0.0454 µM; in [7], 0.227 µM; in [9] it was 0.0416 µM; in [10], 0.0196 µM.
For the compound `Cc1cc(N)c2cc(NC(=O)Nc3ccc4nc(C)cc(N)c4c3)ccc2n1`, the TGI in [1], in [2], in experiment [3], in experiment [4], in experiment [5] and in experiment [6] was > 100 µM in each case. Also, the TGI in experiment [7], in experiment [8], in experiment [9] and in experiment [10] was > 100 µM throughout.
Turning to `O=C1C=CC(=O)[C@H]2C3C=CC(C4C3C3(Cl)C(Cl)=C(Cl)[C@]4(Cl)C3(Cl)Cl)[C@@H]12` (stereo partly specified), the TGI in experiment [1] worked out at 20.9 µM; in [2], 23.2 µM; in experiment [3], 16 µM; in experiment [4] it was 36 µM; in experiment [5], 16 µM; in experiment [6], 12.2 µM. The TGI is 20.3 µM in experiment [7], 18.4 µM in [8], 7.69 µM in experiment [9] and 21 µM in experiment [10].
With `COc1cc(/C=C/c2ccc(S(N)(=O)=O)cc2)cc(OC)c1`, the GI50 in experiment [1] was 23.5 µM; in experiment [4] it was 18.6 µM; in experiment [5] it was 20.7 µM; in [6], 16.2 µM; in experiment [8] it was 23.1 µM; in experiment [9], 15 µM. Also, in [10], the GI50 was 15.4 µM. For the same compound, the TGI in experiment [1] was 66.3 µM; in experiment [2], 41.6 µM; in experiment [3], > 100 µM; in experiment [4] it was 43.9 µM; in experiment [5], 71.9 µM; in experiment [6] it was 33.2 µM. Besides, the TGI in experiment [7] is 40.3 µM; in experiment [8], 45.5 µM; in [9], 43.9 µM; in [10], 30.3 µM.
In the case of `CC1=C(C(=O)NCCCN(CCO)CCO)CC(C(=O)NCCCN(CCO)CCO)=C(C)N1`, the TGI in experiment [1], in experiment [2], in [3], in experiment [4], in experiment [5] and in experiment [6] was > 100 µM each time. The TGI in experiment [7], in experiment [8], in experiment [9] and in experiment [10] was > 100 µM each time.
`CCc1n[nH]c(=O)n1N=C(c1ccccc1)c1ccccc1`: the TGI in experiment [1], in experiment [2], in experiment [3], in experiment [4], in [5] and in [6] was > 100 µM throughout. Further, the TGI in [7], in experiment [8], in experiment [9] and in [10] was > 100 µM throughout.
As for `CN(C)CCCN=c1c2ccccc2n(C)c2[nH]c(=O)n(C)c(=O)c12`, the TGI in experiment [1] was 98.3 µM; in experiment [2] it was > 54.7 µM; in experiment [3], 17.1 µM; in experiment [4], 12.1 µM; in [5] it was > 100 µM; in [6] it was 39.2 µM. Besides, the TGI in experiment [7] was 9.96 µM; in [8] it was > 100 µM; in experiment [9] it was > 84.7 µM; in [10], 24.7 µM.
Take `COc1cc(C2c3cc4c(cc3OC(NNc3ccccc3)C2C)OCO4)cc(OC)c1O` (stereo unspecified): the TGI in [1] was determined as 10.4 µM; in experiment [2], 10.7 µM; in [3], 13.3 µM; in experiment [4], 11.2 µM; in [5], 13.3 µM; in experiment [6], 16.7 µM. The TGI was 6.35 µM in experiment [7], 24.6 µM in [8], 24.5 µM in experiment [9] and 6.03 µM in [10].
`CC(=O)OC12OC(C)(C3C(=O)N(c4ccccc4)C(=O)C31)N(c1ccccc1)C2=O` (stereo unspecified): the TGI in experiment [1], in experiment [2], in experiment [3], in [4], in experiment [5] and in [6] was > 100 µM in each case. Further, the TGI in experiment [7], in experiment [8], in experiment [9] and in [10] was > 100 µM throughout.
Take `CCOC(=O)[C@H](CO)Nc1c(O)c2c(c(O)c1Cl)C(=O)C=CC2=O`: the TGI in [1], in [2], in experiment [3], in [4], in experiment [5] and in experiment [6] was > 10 µM each time. Moreover, the TGI in experiment [7], in [8], in [9] and in experiment [10] was > 10 µM in each case.
Turning to `CCOC(=O)C1=C(C)N(c2ccc(Cl)cc2)C2(O)C=CC(Nc3ccc(Cl)cc3)=C3C(=O)N(c4ccccc4)C(=O)C312` (stereo unspecified), the TGI in [1] is 20 µM; in [2], 19.4 µM; in experiment [3] it was 19.7 µM; in experiment [4], > 100 µM; in [5], > 100 µM; in experiment [6], 16.9 µM. For the same compound, the TGI is 10.5 µM in experiment [7], 21.9 µM in [8], 9.19 µM in experiment [9] and 7.15 µM in experiment [10].
Regarding `COc1cc(/C=C/C2=NN(c3cccc(S(=O)(=O)O)c3)C3(C2)SCC(=O)N3c2nc3ccccc3s2)cc(OC)c1OC` (stereo unspecified), the TGI in experiment [1] is > 100 µM; in [2] it was 47.8 µM; in experiment [3], > 100 µM; in experiment [4], > 100 µM; in experiment [5] it was > 100 µM; in [6] it was > 100 µM. Moreover, the TGI in experiment [7], in experiment [8], in experiment [9] and in experiment [10] was > 100 µM each time.
